The source of these data is patent US20240051940A1, “SULFONAMIDES WITH EGFR INHIBITION ACTIVITIES AND THEIR USE THEREOF” (ACCUTAR BIOTECHNOLOGY INC., priority 2021, published 2024).

Usually GI50 stands for the concentration at which growth is held to half of that of the control. Low values mean more potent growth inhibition, high ones less potent growth inhibition.

A value given as a limit tells only on which side of the number the result lay.

What all share (assay type): cell-based
Experiment [1] has as its system HCC827-DTC (HCC827 cells stably expressing human EGFR del19/T790M/C797S, endogenous EGFR knocked out). Briefly: Cell growth inhibition (CellTiter-Glo), HCC827-DTC. The following applies: 72 h, 3 days after administration. As for the experimental part:
(§1) 1. Preparation of HCC827-LTC and HCC827-DTC Cell Lines
(§2) HCC827 cells (ATCC) were transduced with lentiviral particles expressing codon-optimized human EGFR L858R/T790M/C797S (LTC) mutant or del19/T790M/C797S (DTC) mutant, and then selecting under 5 ug/ml purimycin treatment for a week to generate HCC827 cells stably expressing EGFR LTC or DTC mutants. Next, endogenous EGFR gene in purimycin-selected HCC827 LTC or DTC cells was knocked out using CRISPR-Cas9 technology to ensure the growth of engineered HCC827 cells was solely dependent on exogenous EGFR LTC or DTC mutants. For the EGFR knockout, gRNA complex was prepared by combining Alt-R CRISPR-Cas9 tracrRNA and EGFR crRNA (5′-[…]-3′ for LTC) or (5′-[…]-3′ for DTC) (IDT-Integrated DNA Technologies), and then EGFR ribonucleoprotein (RNP) complex was prepared by combining gRNA complex and Alt-R S.p. Cas9 Nuclease V3 (IDT-Integrated DNA Technologies). Purimycin-selected HCC827 LTC or DTC cells were then electroporated with EGFR RNP complexes using Neon Transfection System (Thermo Fisher). Single clones of HCC827-LTC or HCC827-DTC with endogenous EGFR knockout were picked one week after electroporation and their EGFR knockout was validated by genomic DNA sequencing. HCC827-LTC or HCC827-DTC single clones were also further validated with loss of inhibitory activity by covalent EGFR inhibitors.
(§3) 2. Cell Growth Inhibition for HCC827, HCC827-LTC, HCC827-DTC and NCI-H2073.
(§4) HCC827(ATCC), HCC827-LTC, HCC827-DTC and NCI-H2073 (ATCC) were seeded in 96-well plates at 5000 cells/well in 90 μL of RPMI growth medium containing 10% FBS and 1% Penicillin Streptomycin. Cells were incubated at 37° C. overnight. The following day, the test compound was administered to the cells by using 10× compound stock solution prepared in growth medium at various concentrations. After administration of the compound, cells were then incubated at 37° C. for 3 days. Before CellTiter-Glo assay, the plates were equilibrated at room temperature for approximately 10 minutes. 100 ul of CellTiter-Glo® Reagent (Promega) was added to each well. The plates were then incubated at room temperature for 10 minutes and luminescence was recorded by EnSpire plate reader (PerkinElmer).
Background: Cellular ATP, detected with luciferase, serves as a proxy for viable cell number.

In a further experiment the test system is NCI-H2073. Briefly: Cell growth inhibition (CellTiter-Glo), NCI-H2073. The following applies: 72 h, NCI-H2073 cells, 3 days after administration. Here is the method:
as §3, §4

A further experiment concerns HCC827. Briefly: Cell growth inhibition (CellTiter-Glo), HCC827. The following applies: Homo sapiens, 72 h, HCC827 cells, 3 days after administration. As for the experimental part:
as §3, §4

Experiment [2] concerns HCC827-LTC (HCC827 cells stably expressing human EGFR L858R/T790M/C797S, endogenous EGFR knocked out). Briefly: Cell growth inhibition (CellTiter-Glo), HCC827-LTC. The conditions noted are these: 72 h, 3 days after administration. Here is the method:
as §1, §2, §3, §4

`COc1cc(N2CCC(N3CCN(C)CC3)CC2)c(C)cc1Nc1ncc(Br)c(Nc2ccc3nccnc3c2NS(C)(=O)=O)n1` [Compound 1, N-(6-((5-bromo-2-((2-methoxy-5-methyl-4-(4-(4-methylpiperazin-1-yl)piperidin-1-yl)phenyl)amino)pyrimidin-4-yl)amino)quinoxalin-5-yl)methanesulfonamide]: the GI50 in experiment [1] was in the range of 100 to 300 nM; in the experiment on NCI-H2073, 100 to 300 nM; in the experiment with HCC827, 30 to 100 nM; in experiment [2], 100 to 300 nM.

Turning to `CCc1cc(Nc2ncc(Br)c(Nc3ccc4nccnc4c3NS(C)(=O)=O)n2)c(OC)cc1N1CCC(N2CCN(C)CC2)CC1` [Compound 2, N-(6-((5-bromo-2-((5-ethyl-2-methoxy-4-(4-(4-methylpiperazin-1-yl)piperidin-1-yl)phenyl)amino)pyrimidin-4-yl)amino)quinoxalin-5-yl)methanesulfonamide], the GI50 was 30 to 100 nM in experiment [1], 100 to 300 nM with NCI-H2073, under 30 nM with HCC827 and 30 to 100 nM in experiment [2].

Regarding `COc1cc(N2CCC(N3CCN(C)CC3)CC2)c(C)cc1Nc1ncnc(Nc2ccccc2NS(C)(=O)=O)n1` [Compound 3, N-(2-((4-((2-methoxy-5-methyl-4-(4-(4-methylpiperazin-1-yl)piperidin-1-yl)phenyl)amino)-1,3,5-triazin-2-yl)amino)phenyl)methanesulfon-amide], the GI50 in experiment [1] was in the range of 100 to 300 nM; in the experiment with NCI-H2073 it was 100 to 300 nM; in the experiment on HCC827 it was 30 to 100 nM; in experiment [2] it was 100 to 300 nM.

`COc1cc(N2CCC(N3CCN(C)CC3)CC2)c(C)cc1Nc1ncc(Cl)c(Nc2ccc3nccnc3c2NS(C)(=O)=O)n1` [Compound 4, N-(6-((5-chloro-2-((2-methoxy-5-methyl-4-(4-(4-methylpiperazin-1-yl)piperidin-1-yl)phenyl)amino)pyrimidin-4-yl)amino)quinoxalin-5-yl)methanesulfonamide]: the GI50 in experiment [1] is 30 to 100 nM; in the experiment on NCI-H2073 it was 30 to 100 nM; with HCC827 it was under 30 nM; in experiment [2], 100 to 300 nM.
